Results published in ChEMBL document CHEMBL5352410, “Discovery of novel selenium-containing azole derivatives as antifungal agents by exploiting the hydrophobic cleft of CYP51” (Eur J Med Chem, 2022).
Values after ≈ are worked out from the molar mass of the structure shown.

How the values were obtained:
[1] = Cytotoxicity against human MDA-MB-231 cells by MTT assay; type: toxicity, cell-based
Candida albicans [2] = experiment: Antibiofilm activity against Candida albicans SC5314 assessed as sessile minimum inhibitory concentration measured after 6 hrs by XTT assay; type: functional
Candida albicans [3] = experiment: Antibiofilm activity against Candida albicans SC5314 assessed as sessile minimum inhibitory concentration measured after 24 hrs by XTT assay; type: functional
Candida albicans [4] = experiment: Antifungal activity against FCZ-resistant Candida albicans 904 by CLSI based broth microdilution method; type: functional
[5] = Metabolic stability in mouse liver microsome assessed as clearance; type: ADME; details: liver microsomes, read-out: CLH
Candida albicans [6] = experiment: Antifungal activity against FCZ-resistant Candida albicans 17# by CLSI based broth microdilution method; type: functional
Candida albicans [7] = experiment: Antibiofilm activity against Candida albicans CPCC400616 assessed as sessile minimum inhibitory concentration measured after 6 hrs by XTT assay; type: functional
Candida albicans [8] = experiment: Fungicidal activity against FCZ-resistant Candida albicans 632; type: functional
[9] = Metabolic stability in mouse liver microsome assessed as half life; type: ADME; details: liver microsomes
Candida albicans [10] = experiment: Antibiofilm activity against Candida albicans CPCC400616 assessed as sessile minimum inhibitory concentration measured after 3 hrs by XTT assay; type: functional
Candida albicans [11] = experiment: Antibiofilm activity against Candida albicans CPCC400616 assessed as sessile minimum inhibitory concentration measured after 24 hrs by XTT assay; type: functional
Candida albicans [12] = experiment: Antibiofilm activity against Candida albicans CPCC400616 assessed as sessile minimum inhibitory concentration measured after 1.5 hrs by XTT assay; type: functional
Candida albicans [13] = experiment: Fungicidal activity against FCZ-resistant Candida albicans 901; type: functional
Candida albicans [14] = experiment: Fungicidal activity against FCZ-resistant Candida albicans 17#; type: functional
Candida albicans [15] = experiment: Antifungal activity against FCZ-resistant Candida albicans 901 by CLSI based broth microdilution method; type: functional
Candida albicans [16] = experiment: Antibiofilm activity against Candida albicans SC5314 assessed as sessile minimum inhibitory concentration measured after 1.5 hrs by XTT assay; type: functional
Candida albicans [17] = experiment: Fungicidal activity against FCZ-resistant Candida albicans CaR; type: functional
Candida albicans [18] = experiment: Antifungal activity against FCZ-resistant Candida albicans CaR by CLSI based broth microdilution method; type: functional
[19] = Cytotoxicity against human PC-3 cells by MTT assay; type: toxicity, cell-based
Candida albicans [20] = experiment: Antibiofilm activity against Candida albicans SC5314 assessed as sessile minimum inhibitory concentration measured after 3 hrs by XTT assay; type: functional
[21] = Cytotoxicity against human HL-60 cells by MTT assay; type: toxicity, cell-based
Candida albicans [22] = experiment: Antifungal activity against FCZ-resistant Candida albicans 632 by CLSI based broth microdilution method; type: functional
Candida albicans [23] = experiment: Fungicidal activity against Candida albicans sc5314; type: functional
Candida albicans [24] = experiment: Fungicidal activity against Candida albicans; type: functional
Candida albicans [25] = experiment: Fungicidal activity against FCZ-resistant Candida albicans 904; type: functional
Aspergillus fumigatus = experiment: Antifungal activity against Aspergillus fumigatus by CLSI based broth microdilution method; type: functional
Candida albicans [26] = experiment: Antifungal activity against Candida albicans by CLSI based broth microdilution method; type: functional
Cryptococcus neoformans = experiment: Antifungal activity against Cryptococcus neoformans by CLSI based broth microdilution method; type: functional
[Candida] zeylanoides = Antifungal activity against Candida zeylanoides by CLSI based broth microdilution method; type: functional; details: Dujonia zeylanoides
Candida albicans [27] = experiment: Antifungal activity against Candida albicans sc5314 by CLSI based broth microdilution method; type: functional
Candida parapsilosis = experiment: Antifungal activity against Candida parapsilosis by CLSI based broth microdilution method; type: functional; details: Lodderomyces parapsilosis
Nakaseomyces glabratus = experiment: Antifungal activity against Candida glabrata by CLSI based broth microdilution method; type: functional
Pichia kudriavzevii = experiment: Antifungal activity against Pichia kudriavzevii by CLSI based broth microdilution method; type: functional

Cc1ccc(C(Cn2ccnc2)[Se][Se]C(Cn2ccnc2)c2ccc(C)cc2)cc1 (stereo not drawn)
IC50 [1]: 5.04 µM
MIC50 (Candida albicans [2]): 2 µg/mL (≈ 3.78 µM)
MIC80 (Candida albicans [2]): 8 µg/mL (≈ 15.1 µM)
MIC50 (Candida albicans [3]): 2 µg/mL (≈ 3.78 µM)
MIC80 (Candida albicans [3]): 4 µg/mL (≈ 7.57 µM)
MIC (Candida albicans [4]): 4 µg/mL (≈ 7.57 µM)
CLint scaled [5]: 68.9 mL/min/kg
MIC (Candida albicans [6]): 32 µg/mL (≈ 60.6 µM)
MIC50 (Candida albicans [7]): 1 µg/mL (≈ 1.89 µM)
MIC80 (Candida albicans [7]): 32 µg/mL (≈ 60.6 µM)
MFC (Candida albicans [8]): 8 µg/mL (≈ 15.1 µM)
half-life [9]: 21.2 min
MIC50 (Candida albicans [10]): 2 µg/mL (≈ 3.78 µM)
MIC80 (Candida albicans [10]): 8 µg/mL (≈ 15.1 µM)
MIC50 (Candida albicans [11]): 4 µg/mL (≈ 7.57 µM)
MIC80 (Candida albicans [11]): 128 µg/mL (≈ 242 µM)
MIC50 (Candida albicans [12]): 1 µg/mL (≈ 1.89 µM)
MIC80 (Candida albicans [12]): 8 µg/mL (≈ 15.1 µM)
MFC (Candida albicans [13]): 8 µg/mL (≈ 15.1 µM)
MFC (Candida albicans [14]): > 64 µg/mL
MIC (Candida albicans [15]): 4 µg/mL (≈ 7.57 µM)
MIC50 (Candida albicans [16]): 1 µg/mL (≈ 1.89 µM)
MIC80 (Candida albicans [16]): 4 µg/mL (≈ 7.57 µM)
MFC (Candida albicans [17]): > 64 µg/mL
MIC (Candida albicans [18]): 2 µg/mL (≈ 3.78 µM)
IC50 [19]: 7.43 µM
MIC50 (Candida albicans [20]): 2 µg/mL (≈ 3.78 µM)
MIC80 (Candida albicans [20]): 4 µg/mL (≈ 7.57 µM)
IC50 [21]: 14.7 µM
MIC (Candida albicans [22]): 4 µg/mL (≈ 7.57 µM)
MFC (Candida albicans [23]): 8 µg/mL (≈ 15.1 µM)
MFC (Candida albicans [24]): 64 µg/mL (≈ 121 µM)
MFC (Candida albicans [25]): 8 µg/mL (≈ 15.1 µM)

Cc1ccc(C(Cn2ccnc2)[Se]C(Cn2ccnc2)c2ccc(C)cc2)cc1 (stereo not drawn)
IC50 [1]: 4.21 µM
MIC50 (Candida albicans [2]): 1 µg/mL (≈ 2.22 µM)
MIC80 (Candida albicans [2]): 4 µg/mL (≈ 8.9 µM)
MIC50 (Candida albicans [3]): 2 µg/mL (≈ 4.45 µM)
MIC80 (Candida albicans [3]): 4 µg/mL (≈ 8.9 µM)
MIC (Aspergillus fumigatus): > 64 µg/mL
MIC (Candida albicans [4]): 4 µg/mL (≈ 8.9 µM)
MIC (Candida albicans [26]): 4 µg/mL (≈ 8.9 µM)
MIC (Candida albicans [6]): 0.5 µg/mL (≈ 1.11 µM)
MIC50 (Candida albicans [7]): 2 µg/mL (≈ 4.45 µM)
MIC80 (Candida albicans [7]): 8 µg/mL (≈ 17.8 µM)
MIC (Cryptococcus neoformans): 32 µg/mL (≈ 71.2 µM)
MFC (Candida albicans [8]): 8 µg/mL (≈ 17.8 µM)
MIC50 (Candida albicans [10]): 2 µg/mL (≈ 4.45 µM)
MIC80 (Candida albicans [10]): 8 µg/mL (≈ 17.8 µM)
MIC50 (Candida albicans [11]): 4 µg/mL (≈ 8.9 µM)
MIC80 (Candida albicans [11]): 16 µg/mL (≈ 35.6 µM)
MIC50 (Candida albicans [12]): 1 µg/mL (≈ 2.22 µM)
MIC80 (Candida albicans [12]): 4 µg/mL (≈ 8.9 µM)
MFC (Candida albicans [13]): 8 µg/mL (≈ 17.8 µM)
MIC ([Candida] zeylanoides): 2 µg/mL (≈ 4.45 µM)
MFC (Candida albicans [14]): > 64 µg/mL
MIC (Candida albicans [27]): 4 µg/mL (≈ 8.9 µM)
MIC (Candida albicans [15]): 4 µg/mL (≈ 8.9 µM)
MIC50 (Candida albicans [16]): 1 µg/mL (≈ 2.22 µM)
MIC80 (Candida albicans [16]): 4 µg/mL (≈ 8.9 µM)
MFC (Candida albicans [17]): > 64 µg/mL
MIC (Candida parapsilosis): 4 µg/mL (≈ 8.9 µM)
MIC (Candida albicans [18]): 2 µg/mL (≈ 4.45 µM)
IC50 [19]: 1.11 µM
MIC (Nakaseomyces glabratus): 16 µg/mL (≈ 35.6 µM)
MIC50 (Candida albicans [20]): 1 µg/mL (≈ 2.22 µM)
MIC80 (Candida albicans [20]): 4 µg/mL (≈ 8.9 µM)
IC50 [21]: 8.13 µM
MIC (Candida albicans [22]): 4 µg/mL (≈ 8.9 µM)
MFC (Candida albicans [23]): 16 µg/mL (≈ 35.6 µM)
MFC (Candida albicans [24]): 64 µg/mL (≈ 142 µM)
MFC (Candida albicans [25]): 8 µg/mL (≈ 17.8 µM)
MIC (Pichia kudriavzevii): 16 µg/mL (≈ 35.6 µM)

CC(=O)O[C@H]1C(=O)[C@@]2(C)[C@H]([C@H](OC(=O)c3ccccc3)[C@]3(O)C[C@H](OC(=O)[C@H](O)[C@@H](NC(=O)c4ccccc4)c4ccccc4)C(C)=C1C3(C)C)[C@]1(OC(C)=O)CO[C@@H]1C[C@@H]2O [PACLITAXEL]
IC50 [19]: < 0.025 µM

Fc1ccc(C(Cn2ccnc2)[Se]C(Cn2ccnc2)c2ccc(F)cc2)cc1 (stereo not drawn)
MIC (Aspergillus fumigatus): > 64 µg/mL
MIC (Candida albicans [4]): 32 µg/mL (≈ 70 µM)
MIC (Candida albicans [26]): 4 µg/mL (≈ 8.75 µM)
MIC (Candida albicans [6]): 4 µg/mL (≈ 8.75 µM)
MIC (Cryptococcus neoformans): 64 µg/mL (≈ 140 µM)
MFC (Candida albicans [8]): 16 µg/mL (≈ 35 µM)
MFC (Candida albicans [13]): 64 µg/mL (≈ 140 µM)
MIC ([Candida] zeylanoides): 4 µg/mL (≈ 8.75 µM)
MFC (Candida albicans [14]): > 64 µg/mL
MIC (Candida albicans [27]): 2 µg/mL (≈ 4.37 µM)
MIC (Candida albicans [15]): 16 µg/mL (≈ 35 µM)
MFC (Candida albicans [17]): > 64 µg/mL
MIC (Candida parapsilosis): 16 µg/mL (≈ 35 µM)
MIC (Candida albicans [18]): 2 µg/mL (≈ 4.37 µM)
MIC (Nakaseomyces glabratus): 64 µg/mL (≈ 140 µM)
MIC (Candida albicans [22]): 4 µg/mL (≈ 8.75 µM)
MFC (Candida albicans [23]): 16 µg/mL (≈ 35 µM)
MFC (Candida albicans [24]): 64 µg/mL (≈ 140 µM)
MFC (Candida albicans [25]): > 64 µg/mL
MIC (Pichia kudriavzevii): 32 µg/mL (≈ 70 µM)
